Key:
Assay type in all cases: functional
[1] = system: Mus musculus; experiment: Increase in liver GST activity of Ehrlich's ascites carcinoma xenografted Swiss Albino mouse at 20 mg/kg
[2] = system: Mus musculus; experiment: Increase in liver glutathione peroxidase activity of Ehrlich's ascites carcinoma xenografted Swiss Albino mouse at 20 mg/kg
[3] = system: Mus musculus; experiment: Decrease in body weight of Ehrlich's ascites carcinoma xenografted Swiss albino mouse at 20 mg/kg
[4] = system: Mus musculus; experiment: Increase in mean survival time of Ehrlich's ascites carcinoma xenografted Swiss Albino mouse at 20 mg/kg
[5] = system: Mus musculus; experiment: Increase in life span of Ehrlich's ascites carcinoma xenografted Swiss Albino mouse at 20 mg/kg
[6] = system: Mus musculus; experiment: Effect on TBARS levels in liver of Ehrlich's ascites carcinoma xenografted Swiss Albino mouse at 20 mg/kg measured per 100 g tissue
[7] = system: Mus musculus; experiment: Effect on hydroperoxide levels in liver of Ehrlich's ascites carcinoma xenografted Swiss Albino mouse at 20 mg/kg measured per 100 g tissue
[8] = system: Mus musculus; experiment: Effect on GSH content in liver of Ehrlich's ascites carcinoma xenografted Swiss Albino mouse at 20 mg/kg measured per 100 g tissue
[9] = system: Mus musculus; experiment: Increase in liver SOD activity of Ehrlich's ascites carcinoma xenografted Swiss Albino mouse at 20 mg/kg
[10] = system: Mus musculus; experiment: Increase in liver catalase activity of Ehrlich's ascites carcinoma xenografted Swiss Albino mouse at 20 mg/kg

`O=c1[nH]cc(F)c(=O)[nH]1` [FLUOROURACIL] gave an Activity [1] of 16.2 U/mg, an Activity [2] of 6.97 U/mg and an Activity [3] of 25.2 g. The MST [4] was 39.5 days, the Activity [5] was 119.49% and the Activity [6] was 0.99 mmol. It also gave an Activity [7] of 0.85 mmol, an Activity [8] of 3.65 mmol and an Activity [9] of 3.96 U/mg. The Activity [10] was 20.4 U/mg.
